# Molecular target: T1, full-length human PKCι (Homo sapiens, UniProt P41743)
# T1 construct: Recombinant, full-length human PKCι expressed in Sf21 insect cells is also commercially available; purchased; host or cells: Sf21 insect cells
# T1 sequence (P41743 1-596): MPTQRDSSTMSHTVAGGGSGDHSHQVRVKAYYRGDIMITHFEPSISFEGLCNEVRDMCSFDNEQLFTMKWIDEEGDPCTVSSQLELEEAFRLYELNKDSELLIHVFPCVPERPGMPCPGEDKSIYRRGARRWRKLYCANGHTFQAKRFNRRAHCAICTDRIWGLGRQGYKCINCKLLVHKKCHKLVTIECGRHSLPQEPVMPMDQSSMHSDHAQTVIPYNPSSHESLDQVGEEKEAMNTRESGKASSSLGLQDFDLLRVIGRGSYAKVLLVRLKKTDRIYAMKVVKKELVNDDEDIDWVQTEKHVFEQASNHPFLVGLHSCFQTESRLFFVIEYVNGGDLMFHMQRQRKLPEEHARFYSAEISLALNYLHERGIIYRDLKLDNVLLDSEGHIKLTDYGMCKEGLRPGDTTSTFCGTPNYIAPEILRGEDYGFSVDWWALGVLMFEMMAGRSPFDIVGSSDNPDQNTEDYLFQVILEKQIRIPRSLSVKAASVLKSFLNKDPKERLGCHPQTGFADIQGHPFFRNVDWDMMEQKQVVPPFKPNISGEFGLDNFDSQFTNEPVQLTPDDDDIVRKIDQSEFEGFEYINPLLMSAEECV
# Assay: PKCι IC50 IMAP assay, full-length PKCι at 150 μM ATP
# Assay type: biochemical
# Settings: read-out: IC50 in IMAP assay against full length PKCi at 150 μM ATP
# How it was run: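 Full-length human PKCι from Sf21 cells, typically 15 pM, with 100 nM 5FAM-PKCε pseudosubstrate peptide and 150 μM ATP (5× apparent KM), 60 min at room temperature, 4% DMSO. IMAP fluorescence polarisation read-out; inhibition normalised to no-compound and no-enzyme controls, IC50 from curve fit.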
row,SMILES,IC50 [µM]
1,"COCCNC(=O)C1CCN(c2nc(-c3ccnc(Nc4c(F)cccc4F)c3)nc3cncc(C4CC4)c23)CC1 [Example 739, 1-{5-Cyclopropyl-2-[2-(2,6-difluoro-phenylamino)-pyridin-4-yl]-pyrido[3,4-d]pyrimidin-4-yl}-piperidine-4-carboxylic acid (2-methoxy-ethyl)-amide]",0.1 to 1
2,"N#Cc1cc(F)c(Nc2cc(-c3nc(N4CCNCC4)c4c(C5CC5)cncc4n3)ccn2)c(F)c1 [Example 740, 4-[4-(5-Cyclopropyl-4-piperazin-1-yl-pyrido[3,4-d]pyrimidin-2-yl)-pyridin-2-ylamino]-3,5-difluoro-benzonitrile]",0.1 to 1
3,"O=C(C1CCN(c2nc(-c3ccnc(Nc4c(F)cccc4F)c3)nc3cncc(C4CC4)c23)CC1)N1CCNCC1 [Example 741, (1-{5-Cyclopropyl-2-[2-(2,6-difluoro-phenylamino)-pyridin-4-yl]-pyrido[3,4-d]pyrimidin-4-yl}-piperidin-4-yl)-piperazin-1-yl-methanone]",0.1 to 1
4,"Fc1cccc(F)c1Nc1cc(-c2nc(OC3CCNCC3)c3c(C4CC4)cncc3n2)ccn1 [Example 757, {4-[5-Cyclopropyl-4-(piperidin-4-yloxy)-pyrido[3,4-d]pyrimidin-2-yl]-pyridin-2-yl}-(2,6-difluoro-phenyl)-amine]",0.1 to 1
5,"CN1CCN(c2cccc(Nc3cc(-c4nc(N5CCCC5)c5c(C6CC6)cncc5n4)ccn3)c2)CC1 [Example 760, [4-(5-Cyclopropyl-4-pyrrolidin-1-yl-pyrido[3,4-d]pyrimidin-2-yl)-pyridin-2-yl]-[3-(4-methyl-piperazin-1-yl)-phenyl]-amine]",0.1 to 1
6,"CN1CCN(c2cccc(Nc3cc(-c4nc(N5CCC5)c5c(C6CC6)cncc5n4)ccn3)c2)CC1 [Example 761, [4-(4-Azetidin-1-yl-5-cyclopropyl-pyrido[3,4-d]pyrimidin-2-yl)-pyridin-2-yl]-[3-(4-methyl-piperazin-1-yl)-phenyl]-amine]",0.1 to 1
7,"Fc1cnc(Nc2c(F)cccc2F)cc1-c1nc(N2CCNCC2)c2c(C3CC3)cncc2n1 [Example 764, [4-(5-Cyclopropyl-4-piperazin-1-yl-pyrido[3,4-d]pyrimidin-2-yl)-5-fluoro-pyridin-2-yl]-(2,6-difluoro-phenyl)-amine]",< 0.1
8,"Fc1ccc(Nc2cc(-c3nc(N4CCNCC4)c4c(C5CC5)cncc4n3)c(F)cn2)cc1 [Example 765, [4-(5-Cyclopropyl-4-piperazin-1-yl-pyrido[3,4-d]pyrimidin-2-yl)-5-fluoro-pyridin-2-yl]-(4-fluoro-phenyl)-amine]",< 0.1
9,"c1cc(Nc2cc(-c3nc(N4CCCC4)c4c(C5CC5)cncc4n3)ccn2)cc(N2CCNCC2)c1 [Example 766, [4-(5-Cyclopropyl-4-pyrrolidin-1-yl-pyrido[3,4-d]pyrimidin-2-yl)-pyridin-2-yl]-(3-piperazin-1-yl-phenyl)-amine]",0.1 to 1
10,"c1cc(Nc2cc(-c3nc(N4CCC4)c4c(C5CC5)cncc4n3)ccn2)cc(N2CCNCC2)c1 [Example 767, [4-(4-Azetidin-1-yl-5-cyclopropyl-pyrido[3,4-d]pyrimidin-2-yl)-pyridin-2-yl]-(3-piperazin-1-yl-phenyl)-amine]",0.1 to 1
11,"CC(=O)Nc1cc(-c2nc(N3CCN[C@@H](COCc4ccccc4)C3)c3c(C4CC4)cncc3n2)ccn1 [Example 768, N-{4-[4-((R)-3-Benzyloxymethyl-piperazin-1-yl)-5-cyclopropyl-pyrido[3,4-d]pyrimidin-2-yl]-pyridin-2-yl}-acetamide]",< 0.1
12,"CS(=O)(=O)C[C@H]1CN(c2nc(-c3ccnc(Nc4ccccc4)c3)nc3cncc(C4CC4)c23)CCN1 [Example 769, {4-[5-Cyclopropyl-4-((R)-3-methanesulfonyl-methyl-piperazin-1-yl)-pyrido[3,4-d]pyrimidin-2-yl]-pyridin-2-yl}-phenyl-amine]",< 0.1
13,"CC(=O)Nc1cc(-c2nc(N3CCN[C@@H](CS(C)(=O)=O)C3)c3c(C4CC4)cncc3n2)ccn1 [Example 770, N-{4-[5-Cyclopropyl-4-((R)-3-methanesulfonyl-methyl-piperazin-1-yl)-pyrido[3,4-d]pyrimidin-2-yl]-pyridin-2-yl}-acetamide]",0.1 to 1
14,"CS(=O)(=O)C[C@H]1CN(c2nc(-c3ccnc(Nc4ccc(F)cc4)c3)nc3cncc(C4CC4)c23)CCN1 [Example 771, {4-[5-Cyclopropyl-4-((R)-3-methanesulfonyl-methyl-piperazin-1-yl)-pyrido[3,4-d]pyrimidin-2-yl]-pyridin-2-yl}-(4-fluoro-phenyl)-amine]",1 to 10
15,"CS(=O)(=O)C[C@H]1CN(c2nc(-c3ccnc(Nc4c(F)cccc4F)c3)nc3cncc(C4CC4)c23)CCN1 [Example 772, {4-[5-Cyclopropyl-4-((R)-3-methanesulfonyl-methyl-piperazin-1-yl)-pyrido[3,4-d]pyrimidin-2-yl]-pyridin-2-yl}-(2,6-difluoro-phenyl)-amine]",0.1 to 1
16,"CS(=O)(=O)C[C@H]1CN(c2nc(-c3ccnc(NC(=O)C4CC4)c3)nc3cncc(C4CC4)c23)CCN1 [Example 773, Cyclopropanecar-boxylic acid {4-[5-cyclopropyl-4-((R)-3-methanesulfonyl-methyl-piperazin-1-yl)-pyrido[3,4-d]pyrimidin-2-yl]-pyridin-2-yl}-amide]",0.1 to 1

# Now from value to compound:
row,IC50 [µM],SMILES
1,< 0.1,"NC(=O)c1ccc(Nc2cc(-c3nc(N4CCNCC4)c4c(C5CC5)cncc4n3)ccn2)cc1 [Example 742, 4-[4-(5-Cyclopropyl-4-piperazin-1-yl-pyrido[3,4-d]pyrimidin-2-yl)-pyridin-2-ylamino]-benzamide]"
2,< 0.1,"c1ccn2nc(Nc3cc(-c4nc(N5CCNCC5)c5c(C6CC6)cncc5n4)ccn3)nc2c1 [Example 743, [4-(5-Cyclopropyl-4-piperazin-1-yl-pyrido[3,4-d]pyrimidin-2-yl)-pyridin-2-yl]-[1,2,4]triazolo[1,5-a]pyridin-2-yl-amine]"
3,< 0.1,"CNCCNC(=O)C1CCN(c2nc(-c3ccnc(Nc4c(F)cccc4F)c3)nc3cncc(C4CC4)c23)CC1 [Example 744, 1-{5-Cyclopropyl-2-[2-(2,6-difluoro-phenylamino)-pyridin-4-yl]-pyrido[3,4-d]pyrimidin-4-yl}-piperidine-4-carboxylic acid (2-methylamino-ethyl)-amide]"
4,< 0.1,"N#Cc1cccc(Nc2cc(-c3nc(N4CCNCC4)c4c(C5CC5)cncc4n3)ccn2)n1 [Example 746, 6-[4-(5-Cyclopropyl-4-piperazin-1-yl-pyrido[3,4-d]pyrimidin-2-yl)-pyridin-2-ylamino]-pyridine-2-carbonitrile]"
5,< 0.1,"CN1CCN(c2cccc(Nc3cc(-c4nc(N5CCC(O)(O)C(F)(F)C5)c5c(C6CC6)cncc5n4)ccn3)c2)CC1 [Example 747, 1-(5-Cyclopropyl-2-{2-[3-(4-methyl-piperazin-1-yl)-phenylamino]-pyridin-4-yl}-pyrido[3,4-d]pyrimidin-4-yl)-3,3-difluoro-piperidine-4,4-diol]"
6,< 0.1,"Fc1cc(F)c(Nc2cc(-c3nc(N4CCNCC4)c4c(C5CC5)cncc4n3)ccn2)cn1 [Example 748, [4-(5-Cyclopropyl-4-piperazin-1-yl-pyrido[3,4-d]pyrimidin-2-yl)-pyridin-2-yl]-(4,6-difluoro-pyridin-3-yl)-amine]"
7,< 0.1,"Fc1cnc(F)c(Nc2cc(-c3nc(N4CCNCC4)c4c(C5CC5)cncc4n3)ccn2)c1 [Example 749, [4-(5-Cyclopropyl-4-piperazin-1-yl-pyrido[3,4-d]pyrimidin-2-yl)-pyridin-2-yl]-(2,5-difluoro-pyridin-3-yl)-amine]"
8,< 0.1,"c1ccc(Nc2cc(-c3nc(N4CCNCC4)c4c(C5CC5)cncc4n3)ccn2)nc1 [Example 750, [4-(5-Cyclopropyl-4-piperazin-1-yl-pyrido[3,4-d]pyrimidin-2-yl)-pyridin-2-yl]-pyridin-2-yl-amine]"
9,< 0.1,"Fc1ccnc(Nc2cc(-c3nc(N4CCNCC4)c4c(C5CC5)cncc4n3)ccn2)c1 [Example 756, [4-(5-Cyclopropyl-4-piperazin-1-yl-pyrido[3,4-d]pyrimidin-2-yl)-pyridin-2-yl]-(4-fluoro-pyridin-2-yl)-amine]"
10,< 0.1,"Cn1cc(CNc2cc(-c3nc(N4CCNCC4)c4c(C5CC5)cncc4n3)ccn2)cn1 [Example 758, [4-(5-Cyclopropyl-4-piperazin-1-yl-pyrido[3,4-d]pyrimidin-2-yl)-pyridin-2-yl]-(1-methyl-1H-pyrazol-4-ylmethyl)-amine]"
11,< 0.1,"COc1ccc(F)c(Nc2cc(-c3nc(N4CCNCC4)c4c(C5CC5)cncc4n3)ccn2)n1 [Example 762, [4-(5-Cyclopropyl-4-piperazin-1-yl-pyrido[3,4-d]pyrimidin-2-yl)-pyridin-2-yl]-(3-fluoro-6-methoxy-pyridin-2-yl)-amine]"
12,< 0.1,"CC1CN(c2nc(-c3ccnc(Nc4nc(F)ccc4F)c3)nc3cncc(C4CC4)c23)CC(C)N1 (stereo not shown) [Example 763, {4-[5-Cyclopropyl-4-(3,5-dimethyl-piperazin-1-yl)-pyrido[3,4-d]pyrimidin-2-yl]-pyridin-2-yl}-(3,6-difluoro-pyridin-2-yl)-amine]"
